target: Mcl-1 protein (UniProtKB Q07820) (Homo sapiens (Human), UniProt Q07820); experiment: Inhibition of Mcl-1 by the fluorescence polarisation assay (Example A, Method A); type: binding; conditions: fluorescence polarization assay
Method in brief: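 Protein (5 nM) and fluorescein-tagged peptide tracer (1 nM) incubated with 11-point compound series for 2 h at room temperature in HEPES/NaCl/Tween 20 buffer, pH 7.4, 5% DMSO. Displacement read as decrease in polarisation; IC50 fitted by 4-parameter logistic, converted to Ki (cKi or eKi).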

Sequence of Mcl-1 protein (Q07820 whole entry): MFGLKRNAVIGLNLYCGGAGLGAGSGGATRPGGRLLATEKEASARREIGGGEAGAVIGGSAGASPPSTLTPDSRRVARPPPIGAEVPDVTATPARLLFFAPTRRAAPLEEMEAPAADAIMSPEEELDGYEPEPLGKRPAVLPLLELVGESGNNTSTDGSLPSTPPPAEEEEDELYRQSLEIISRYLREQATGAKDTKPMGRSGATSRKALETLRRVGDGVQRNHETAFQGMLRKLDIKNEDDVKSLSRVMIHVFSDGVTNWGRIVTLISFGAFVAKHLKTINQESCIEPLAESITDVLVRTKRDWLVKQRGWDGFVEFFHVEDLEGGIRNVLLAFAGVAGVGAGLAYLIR

| SMILES | Ki [µM] |
| --- | --- |
| CC(=O)c1ccc2c(c1)[C@]1(CC[C@@](Nc3cccc(Cl)c3)(C(=O)O)CC1)C(Br)=C2 [Example 132, (1s,4s)-6′-acetyl-2′-bromo-4-(3-chloroanilino)spiro[cyclohexane-1,1′-indene]-4-carboxylic acid] | 0.15 |
| COc1ccc([C@H]2Cc3ccccc3[C@]23CC[C@@](Nc2cccc(Br)c2)(C(=O)O)CC3)cc1 [Example 218, (1r,2′R,4R)-4-(3-bromoanilino)-2′-(4-methoxyphenyl)-2′,3′-dihydrospiro[cyclohexane-1,1′-indene]-4-carboxylic acid] | 13.4 |
| O=C(O)[C@]1(Nc2cccc(Cl)c2)CC[C@]2(CC1)C(c1coc3ccccc13)=Cc1ccccc12 [Example 245, (1s,4s)-2′-(1-benzofuran-3-yl)-4-(3-chloroanilino)spiro[cyclohexane-1,1′-indene]-4-carboxylic acid] | 4.3 |
| O=C(O)[C@]1(Nc2cccc(Cl)c2)CC[C@@]2(CC1)c1ccccc1CC2CCCOc1ccc2c(c1)OCO2 (some centres unmarked) [Example 428, (1r,4r)-2′-{3-[(2H-1,3-benzodioxol-5-yl)oxy]propyl}-4-(3-chloroanilino)-2′,3′-dihydrospiro[cyclohexane-1,1′-indene]-4-carboxylic acid] | 0.393 |
| O=C(NCCc1ccncc1)C1=Cc2ccccc2[C@]12CC[C@@](Nc1cccc(Cl)c1)(C(=O)O)CC2 [Example 402, (1s,4s)-4-(3-chloroanilino)-2′-{[2-(pyridin-4-yl)ethyl]carbamoyl}spiro[cyclohexane-1,1′-indene]-4-carboxylic acid] | 18.8 |
| O=C(O)C1(Nc2cccc(Br)c2)CCC2(CC1)c1ccccc1CC2c1nccs1 (single isomer, unassigned) [Example 223, 4-(3-bromoanilino)-2′-(1,3-thiazol-2-yl)-2′,3′-dihydrospiro[cyclohexane-1,1′-indene]-4-carboxylic acid] | 14.3 |
| COc1ccc(C2Cc3ccccc3[C@]23CC[C@@](Nc2cccc(Cl)c2)(C(=O)O)CC3)c(Cl)c1 (single isomer, unassigned) [Example 269, (1r,4r)-4-(3-chloroanilino)-2′-(2-chloro-4-methoxyphenyl)-2′,3′-dihydrospiro[cyclohexane-1,1′-indene]-4-carboxylic acid] | 11.1 |
| COc1ccc([C@@H]2Cc3ccccc3[C@]23CC[C@@](Nc2cccc(Cl)c2)(C(=O)O)CC3)cc1 [Example 240, (1r,2′S,4S)-4-(3-chloroanilino)-2′-(4-methoxyphenyl)-2′,3′-dihydrospiro[cyclohexane-1,1′-indene]-4-carboxylic acid] | 0.217 |
| COc1ccc(Cl)c(C2Cc3ccccc3[C@]23CC[C@@](Nc2cccc(Cl)c2)(C(=O)O)CC3)c1 (single isomer, unassigned) [Example 259, (1r,4r)-4-(3-chloroanilino)-2′-(2-chloro-5-methoxyphenyl)-2′,3′-dihydrospiro[cyclohexane-1,1′-indene]-4-carboxylic acid] | 9.97 |
| O=C(O)[C@]1(Nc2cccc(Cl)c2)CC[C@@]2(CC1)c1ccccc1C[C@@H]2c1ccc(Oc2ccccc2)cc1 [Example 359, (1r,2′R,4R)-4-(3-chloroanilino)-2′-(4-phenoxyphenyl)-2′,3′-dihydrospiro[cyclohexane-1,1′-indene]-4-carboxylic acid] | 2.14 |
| CC1=C(C)[C@]2(CC[C@@](Nc3cccc(Br)c3)(C(=O)O)CC2)c2ccccc21 [Example 203, (1s,4s)-4-(3-bromoanilino)-2′,3′-dimethylspiro[cyclohexane-1,1′-indene]-4-carboxylic acid] | 40.1 |
| COc1cccc(C2=Cc3ccccc3[C@]23CC[C@@](Nc2cccc(Cl)c2)(C(=O)O)CC3)c1 [Example 253, (1s,4s)-4-(3-chloroanilino)-2′-(3-methoxyphenyl)spiro[cyclohexane-1,1′-indene]-4-carboxylic acid] | 0.836 |
| O=C(O)[C@]1(Nc2cccc(Br)c2)CC[C@]2(CC1)c1ccccc1CC2CCc1ccccn1 (mixture of isomers) [Example 176, (1s,4s)-4-(3-bromoanilino)-2′-[2-(pyridin-2-yl)ethyl]-2′,3′-dihydrospiro[cyclohexane-1,1′-indene]-4-carboxylic acid] | 11.8 |
| CC1CCc2nccc(OC[C@H](C)CC3Cc4ccccc4[C@]34CC[C@@](Nc3cccc(Cl)c3)(C(=O)O)CC4)c21 (single isomer, unassigned) [Example 601] | 0.0328 |
| O=C(O)[C@]1(Nc2cccc(Cl)c2)CC[C@]2(CC1)C(c1cccc(C(F)(F)F)c1)=Cc1ccccc12 [Example 312, (1s,4s)-4-(3-chloroanilino)-2′-[3-(trifluoromethyl)phenyl]spiro[cyclohexane-1,1′-indene]-4-carboxylic acid] | 0.839 |
| CN(Cc1ccccc1)C(=O)C1=Cc2ccccc2[C@]12CC[C@@](Nc1cccc(Cl)c1)(C(=O)O)CC2 [Example 181, (1s,4s)-2′-[benzyl(methyl)carbamoyl]-4-(3-chloroanilino)spiro[cyclohexane-1,1′-indene]-4-carboxylic acid] | 11.4 |

| SMILES | Ki [µM] |
| --- | --- |
| COCC(F)(F)CC1Cc2ccccc2[C@]12CC[C@@](Nc1cccc(Cl)c1)(C(=O)O)CC2 (some centres unmarked) [Example 502, (1r,4r)-4-(3-chloroanilino)-2′-(2,2-difluoro-3-methoxypropyl)-2′,3′-dihydrospiro[cyclohexane-1,1′-indene]-4-carboxylic acid] | 77.8 |
| Cc1ccccc1CCOCC1=Cc2ccccc2[C@]12CC[C@@](Nc1cccc(Cl)c1)(C(=O)O)CC2 [Example 415, (1s,4s)-4-(3-chloroanilino)-2′-{[2-(2-methylphenyl)ethoxy]methyl}spiro[cyclohexane-1,1′-indene]-4-carboxylic acid] | 0.365 |
| CCc1ccc2c(c1)[C@]1(CC[C@](Nc3cccc(Br)c3)(C(=O)O)CC1)C(=O)N2C [Example 8, (1r,4r)-4-(3-bromoanilino)-5′-ethyl-1′-methyl-2′-oxo-1′,2′-dihydrospiro[cyclohexane-1,3′-indole]-4-carboxylic acid] | 22.5 |
| COc1ccc(Cl)c(C2Cc3ccccc3[C@]23CC[C@@](Nc2cccc(Cl)c2)(C(=O)O)CC3)c1 (single isomer, unassigned) [Example 258, (1r,4r)-4-(3-chloroanilino)-2′-(2-chloro-5-methoxyphenyl)-2′,3′-dihydrospiro[cyclohexane-1,1′-indene]-4-carboxylic acid] | 2.37 |
| COc1ccc(CCCC2=Cc3ccccc3[C@]23CC[C@@](Nc2cccc(Cl)c2)(C(=O)O)CC3)cc1 [Example 155, (1r,4r)-4-(3-chloroanilino)-2′-[3-(4-methoxyphenyl)propyl]spiro[cyclohexane-1,1′-indene]-4-carboxylic acid] | 0.71 |
| Cc1ccc(S(=O)(=O)N2Cc3ccccc3C23CCC(Nc2cccc(Cl)c2)(C(=O)O)CC3)cc1 (single isomer, unassigned) [Example 28, 4-(3-chloroanilino)-2′-(4-methylbenzene-1-sulfonyl)-2′,3′-dihydrospiro[cyclohexane-1,1′-isoindole]-4-carboxylic acid] | 14.8 |
| O=C(O)[C@]1(Nc2cccc(Cl)c2)CC[C@]2(CC1)C(C1=CCCCC1)=Cc1ccccc12 [Example 275, (1r,4r)-4-(3-chloroanilino)-2′-(cyclohex-1-en-1-yl)spiro[cyclohexane-1,1′-indene]-4-carboxylic acid] | 10.1 |
| COc1ccc(C2Cc3ccccc3[C@]23CC[C@@](Nc2ccccc2)(C(=O)O)CC3)c(C)c1 (single isomer, unassigned) [Example 257, (1r,4r)-4-anilino-2′-(4-methoxy-2-methylphenyl)-2′,3′-dihydrospiro[cyclohexane-1,1′-indene]-4-carboxylic acid] | 40.4 |
| COc1ccc2c(c1)[C@]1(CC[C@@](Nc3cccc(Br)c3)(C(=O)O)CC1)C1(CCCC1)C2 [Example 95, (1r,4r)-4-(3-bromoanilino)-6′-methoxy-3′H-dispiro[cyclohexane-1,1′-indene-2′,1″-cyclopentane]-4-carboxylic acid] | 1.19 |
| COc1cccc(N2Cc3ccccc3[C@]23CC[C@@](Nc2cccc(Br)c2)(C(=O)O)CC3)c1 [Example 32, (1s,4s)-4-(3-bromoanilino)-2′-(3-methoxyphenyl)-2′,3′-dihydrospiro[cyclohexane-1,1′-isoindole]-4-carboxylic acid] | 3.21 |
| O=C(O)[C@]1(Nc2cccc(Cl)c2)CC[C@@]2(CCc3ccccc32)CC1 [Example 69, (1r,4s)-4-(3-chloroanilino)-2′,3′-dihydrospiro[cyclohexane-1,1′-indene]-4-carboxylic acid] | 0.706 |
| CN(CCc1ccccc1)C(=O)C1Cc2ccccc2[C@]12CC[C@@](Nc1cccc(Cl)c1)(C(=O)O)CC2 (single isomer, unassigned) [Example 408, (1r,4r)-4-(3-chloroanilino)-2′-[methyl(2-phenylethyl)carbamoyl]-2′,3′-dihydrospiro[cyclohexane-1,1′-indene]-4-carboxylic acid] | 4.27 |
| Cc1csc(C2=Cc3ccccc3[C@]23CC[C@@](Nc2cccc(Cl)c2)(C(=O)O)CC3)c1 [Example 316, (1s,4s)-4-(3-chloroanilino)-2′-(4-methylthiophen-2-yl)spiro[cyclohexane-1,1′-indene]-4-carboxylic acid] | 1.87 |
| O=C(O)[C@]1(Nc2cccc(Cl)c2)CC[C@@]2(CC1)c1ccccc1CC2c1cccc(OCc2ccncc2)c1 (single isomer, unassigned) [Example 373, (1r,4r)-4-(3-chloroanilino)-2′-{3-[(pyridin-4-yl)methoxy]phenyl}-2′,3′-dihydrospiro[cyclohexane-1,1′-indene]-4-carboxylic acid] | 0.221 |
| O=C(O)[C@]1(Nc2cccc(Cl)c2)CC[C@]2(CC1)C(c1ccc3ccoc3c1)=Cc1ccccc12 [Example 265, (1s,4s)-2′-(1-benzofuran-6-yl)-4-(3-chloroanilino)spiro[cyclohexane-1,1′-indene]-4-carboxylic acid] | 1.1 |
| O=C(O)C1(Nc2cccc(Br)c2)CCC2(CC1)CNc1ccccc12 (centres unmarked) [Example 3, 4-(3-bromoanilino)-1′,2′-dihydrospiro[cyclohexane-1,3′-indole]-4-carboxylic acid] | 12.8 |

— patent US20240150293A1, “SPIROCYCLOHEXANE DERIVATIVES, PHARMACEUTICAL COMPOSITIONS CONTAINING THEM AND THEIR USES AS ANTI-APOPTOTIC INHIBITORS” (LES LABORATOIRES SERVIER, priority 2021, published 2024)
